What follows are compounds tested on Influenza type B (cell culture adapted strain B/Lee/40, ATCC VR-1535) (assay: Influenza antiviral assay: inhibition of virus-induced cytopathic effects (CPE) in MDCK cells, XTT dye reduction). Conditions: Influenza B virus, MDCK, 96 h, strain B/Lee/40, MDCK cells, CPE inhibition at 4 days.
Format: cell-based

Row | SMILES | EC50 [nM]
1 | CCN1CN(C23c4ccccc4CC2(C)Cc2c3ccc(F)c2F)n2ccc(=O)c(O)c2C1=O (stereo not drawn) [Compound A164] | < 125
2 | CN1CN(C23c4ccccc4CC2Cc2c3ccc(Cl)c2F)n2ccc(=O)c(O)c2C1=O (stereo not drawn) [Compound A160] | < 125
3 | COCCN1CN(C23c4ccccc4CC2Cc2c(Cl)cccc23)n2ccc(=O)c(O)c2C1=O (stereo not drawn) [Compound A101] | < 125
4 | CC(C)CN1C(=O)c2c(O)c(=O)ccn2N(C23c4ccccc4CC2Cc2c3ccc(F)c2F)C1C (stereo not drawn) [Compound A127] | 250 to 375
5 | O=C1c2c(O)c(=O)ccn2N(C23c4cccc(F)c4CC2Cc2c(F)cccc23)CN1CCc1ccccc1 (stereo not drawn) [Compound A86] | < 125
6 | CCN1C(=O)c2c(O)c(=O)ccn2N(C23c4ccccc4CC2Cc2c(F)cccc23)C1C (stereo not drawn) [Compound A138] | < 125
7 | O=C1c2c(O)c(=O)ccn2N(C23c4ccccc4CC2Cc2cc(F)c(F)cc23)CN1CC1CC1 (stereo not drawn) [Compound A13, 3-Cyclopropylmethyl-1-(2,3-difluoro-9a,10-dihydro-9H-indeno[1,2-a]inden-4b-yl)-5-hydroxy-2,3-dihydro-1H-pyrido[2,1-f][1,2,4]triazine-4,6-dione] | < 125
8 | O=C1c2c(O)c(=O)ccn2N(C23c4ccccc4CC2Cc2c(Cl)cccc23)CN1CC(F)F (stereo not drawn) [Compound A105] | < 125
9 | CN1CN(C23c4cc(F)c(F)cc4CC2Cc2cc(F)c(F)cc23)n2ccc(=O)c(O)c2C1=O (stereo not drawn) [Compound A8, 5-Hydroxy-3-methyl-1-(2,3,6,7-tetrafluoro-9a,10-dihydro-9H-indeno[1,2-a]inden-4b-yl)-2,3-dihydro-1H-pyrido[2,1-f][1,2,4]triazine-4,6-dione] | > 500
10 | CN1CN(C23c4ccccc4CC2(C)Cc2c3ccc(F)c2F)n2ccc(=O)c(O)c2C1=O (stereo not drawn) [Compound A165] | < 125
11 | Cc1c(F)ccc2c1CC1Cc3ccccc3C21N1CN(C)C(=O)c2c(O)c(=O)ccn21 (stereo not drawn) [Compound A78] | < 125
12 | CN1CN(C23c4ccccc4CC2Cc2c3ccc(Cl)c2Cl)n2ccc(=O)c(O)c2C1=O (stereo not drawn) [Compound A146] | 125 to 250
13 | CN1CN(C23c4cccc(F)c4CC2Cc2c(F)cccc23)n2ccc(=O)c(O)c2C1=O (stereo not drawn) [Compound A12, 1-(1,8-Difluoro-9a,10-dihydro-9H-indeno[1,2-a]inden-4b-yl)-5-hydroxy-3-methyl-2,3-dihydro-1H-pyrido[2,1-f][1,2,4]triazine-4,6-dione] | > 500
14 | CN1CN(C23c4cccc(F)c4CC2(C)Cc2c(F)cccc23)n2ccc(=O)c(O)c2C1=O (stereo not drawn) [Compound A54] | < 125
15 | CCN1CN(C23c4ccccc4CC2Cc2c3ccc(F)c2C)n2ccc(=O)c(O)c2C1=O (stereo not drawn) [Compound A77] | 125 to 250
16 | O=C1c2c(O)c(=O)ccn2N(C23c4ccccc4CC2Cc2ccccc23)CN1CCOc1ccccc1 (stereo not drawn) [Compound A7, 1-(9a,10-Dihydro-9H-indeno[1,2-a]inden-4b-yl)-5-hydroxy-3-(2-phenoxy-ethyl)-2,3-dihydro-1H-pyrido[2,1-t][1,2,4]triazine-4,6-dione] | < 125
17 | CC1N(CC2CC2)C(=O)c2c(O)c(=O)ccn2N1C12c3ccccc3CC1Cc1c(F)cccc12 (stereo not drawn) [Compound A129] | 125 to 250
18 | CCN1CN(C23c4ccccc4CC2(OC)Cc2ccccc23)n2ccc(=O)c(O)c2C1=O (stereo not drawn) [Compound A152] | 125 to 250
19 | O=C1c2c(O)c(=O)ccn2N(C23c4ccccc4CC2Cc2c(Cl)cccc23)CN1CCCF (stereo not drawn) [Compound A102] | < 125
20 | O=C1c2c(O)c(=O)ccn2N(C23c4ccccc4CC2Cc2c3ccc(F)c2F)CN1CCF (stereo not drawn) [Compound A74] | < 125
21 | CCCN1CN(C23c4cccc(F)c4CC2Cc2c(F)cccc23)n2ccc(=O)c(O)c2C1=O (stereo not drawn) [Compound A153] | 125 to 250
22 | CCN1CN(C23c4cccc(F)c4CC2(C)Cc2c(F)cccc23)n2ccc(=O)c(O)c2C1=O (stereo not drawn) [Compound A51] | < 125
23 | CN1CN(C23c4ccc(F)cc4CC2Cc2cc(F)ccc23)n2ccc(=O)c(O)c2C1=O (stereo not drawn) [Compound A3, 1-(2,7-Difluoro-9a,10-dihydro-9H-indeno[1,2-a]inden-4b-yl)-5-hydroxy-3-methyl-2,3-dihydro-1H-pyrido[2,1-f][1,2,4]triazine-4,6-dione] | > 500
24 | CC(C)CN1C(=O)c2c(O)c(=O)ccn2N(C23c4ccccc4CC2Cc2c(Cl)cccc23)C1C (stereo not drawn) [Compound A118] | 250 to 375
25 | O=C1c2c(O)c(=O)ccn2N(C23c4ccccc4CC2Cc2cc(F)c(F)cc23)CN1CC1CCOCC1 (stereo not drawn) [Compound A16, 1-(2,3-Difluoro-9a,10-dihydro-9H-indeno[1,2-a]inden-4b-yl)-5-hydroxy-3-(tetrahydro-pyran-4-ylmethyl)-2,3-dihydro-1H-pyrido[2,1-f][1,2,4]triazine-4,6-dione] | < 125

Row | SMILES | EC50 [nM]
26 | CN1CN(C23c4ccccc4CC2(C(F)F)Cc2ccccc23)n2ccc(=O)c(O)c2C1=O (stereo not drawn) [Compound A63] | < 125
27 | COCCN1CN(C23c4cccc(F)c4CC2Cc2c(F)cccc23)n2ccc(=O)c(O)c2C1=O (stereo not drawn) [Compound A49] | < 125
28 | O=C1c2c(O)c(=O)ccn2N(C23c4ccccc4CC2Cc2c3ccc(F)c2F)CN1CC1CCCCC1 (stereo not drawn) [Compound A99] | 250 to 375
29 | CCN1CN(C23c4ccccc4CC2(CC)Cc2c3ccc(F)c2F)n2ccc(=O)c(O)c2C1=O (stereo not drawn) [Compound A56] | < 125
30 | CCN1CN(C23c4cccc(C)c4CC2Cc2c(F)cccc23)n2ccc(=O)c(O)c2C1=O (stereo not drawn) [Compound A66] | < 125
31 | O=C1c2c(O)c(=O)ccn2N(C23c4ccccc4CC2Cc2ccccc23)CN1Cc1ccccc1 (stereo not drawn) [Compound A4, 3-Benzyl-1-(9a,10-dihydro-9H-indeno[1,2-a]inden-4b-yl)-5-hydroxy-2,3-dihydro-1H-pyrido[2,1-f][1,2,4]triazine-4,6-dione] | > 500
32 | CCOC12Cc3ccccc3C1(N1CN(C)C(=O)c3c(O)c(=O)ccn31)c1ccccc1C2 (stereo not drawn) [Compound A57] | < 125
33 | CCN1CN(C23c4ccccc4CC2Cc2c3ccc(F)c2Cl)n2ccc(=O)c(O)c2C1=O (stereo not drawn) [Compound A47] | 125 to 250
34 | O=C1c2c(O)c(=O)ccn2N(C23c4ccccc4CC2Cc2c3ccc(F)c2F)CN1Cc1cccc(F)c1 (stereo not drawn) [Compound A26, 1-(1,2-difluoro-9a,10-dihydroindeno[1,2-a]inden-4b(9H)-yl)-3-(3-fluorobenzyl)-5-hydroxy-2,3-dihydro-1H-pyrido[2,1-f][1,2,4]triazine-4,6-dione] | 250 to 375
35 | CN1CN(C23c4ccccc4CC2Cc2cccc(F)c23)n2ccc(=O)c(O)c2C1=O (stereo not drawn) [Compound A145] | < 125
36 | CCOC12Cc3ccccc3C1(N1CN(CC)C(=O)c3c(O)c(=O)ccn31)c1ccccc1C2 (stereo not drawn) [Compound A48, 1-(9a-Ethoxy-9a,10-dihydroindeno[1,2-a]inden-4b(9H)-yl)-3-ethyl-5-hydroxy-2,3-dihydro-1H-pyrido[2,1-f][1,2,4]triazine-4,6-dione] | < 125
37 | O=C1c2c(O)c(=O)ccn2N(C23c4ccccc4CC2Cc2ccccc23)CN1Cc1cccc(Cl)c1F (stereo not drawn) [Compound A31, 3-(3-chloro-2-fluorobenzyl)-1-(9a,10-dihydroindeno[1,2-a]inden-4b(9H)-yl)-5-hydroxy-2,3-dihydro-1H-pyrido[2,1-f][1,2,4]triazine-4,6-dione] | 375 to 500
38 | CC1N(CC(F)F)C(=O)c2c(O)c(=O)ccn2N1C12c3ccccc3CC1Cc1c2ccc(F)c1F (stereo not drawn) [Compound A136] | 250 to 375
39 | COCCN1CN(C23c4ccccc4CC2Cc2ccccc23)n2ccc(=O)c(O)c2C1=O (stereo not drawn) [Compound A110] | < 125
40 | COCCN1CN(C23c4ccccc4CC2Cc2c(F)cccc23)n2ccc(=O)c(O)c2C1=O (stereo not drawn) [Compound A69] | < 125
41 | CC(C)CN1CN(C23c4cccc(F)c4CC2Cc2c(F)cccc23)n2ccc(=O)c(O)c2C1=O (stereo not drawn) [Compound A156] | 125 to 250
42 | O=C1c2c(O)c(=O)ccn2N(C23c4ccccc4CC2Cc2c(F)cccc23)CN1CC1CCOCC1 (stereo not drawn) [Compound A75] | < 125
43 | CN1C(=O)c2c(O)c(=O)ccn2N(C23c4cccc(F)c4CC2Cc2c(F)cccc23)C1CO (stereo not drawn) [Compound A59] | < 125
44 | O=C1c2c(O)c(=O)ccn2N(C23c4ccccc4CC2Cc2c3ccc(F)c2F)CN1Cc1ccc(F)cc1 (stereo not drawn) [Compound A17, 1-(1,2-Difluoro-9a,10-dihydro-9H-indeno[1,2-a]inden-4b-yl)-3-(4-fluoro-benzyl)-5-hydroxy-2,3-dihydro-1H-pyrido[2,1-f][1,2,4]triazine-4,6-dione] | 125 to 250
45 | O=C1c2c(O)c(=O)ccn2N(C23c4ccccc4CC2Cc2cc(F)c(F)cc23)CN1Cc1ccc(F)cc1 (stereo not drawn) [Compound A23, 1-(2,3-Difluoro-9a,10-dihydro-9H-indeno[1,2-a]inden-4b-yl)-3-(4-fluoro-benzyl)-5-hydroxy-2,3-dihydro-1H-pyrido[2,1-f][1,2,4]triazine-4,6-dione] | 250 to 375
46 | CC1N(C)C(=O)c2c(O)c(=O)ccn2N1C12c3ccccc3CC1Cc1c2ccc(F)c1F (stereo not drawn) [Compound A64] | < 125
47 | Cc1cccc2c1CC1Cc3c(F)cccc3C21N1CN(C)C(=O)c2c(O)c(=O)ccn21 (stereo not drawn) [Compound A67] | < 125
48 | CN1CN(C23c4ccccc4CC2(C)Cc2ccccc23)n2ccc(=O)c(O)c2C1=O (stereo not drawn) [Compound A150] | < 125
49 | CC1N(CCF)C(=O)c2c(O)c(=O)ccn2N1C12c3ccccc3CC1Cc1c(Cl)cccc12 (stereo not drawn) [Compound A115] | 250 to 375

Same assay, conditions: strain B/Lee/40, MDCK cells, CPE inhibition at 4 days

Row | SMILES | EC50 [nM]
50 | CC(CCN1CN(C23c4ccccc4CC2Cc2ccccc23)n2ccc(=O)c(O)c2C1=O)c1ccccc1 (stereo not drawn) [Compound A33] | > 500
51 | O=C1c2c(O)c(=O)ccn2N(C23c4ccccc4CC2Cc2c(Cl)cccc23)CN1CCF (stereo not drawn) [Compound A114] | 125 to 250
52 | CCN1CN(C23c4ccccc4CC2Cc2c3ccc(F)c2F)n2ccc(=O)c(O)c2C1=O (stereo not drawn) [Compound A45] | < 125
53 | CN1CN(C23c4ccccc4CC2Cc2c3ccc(F)c2Cl)n2ccc(=O)c(O)c2C1=O (stereo not drawn) [Compound A90] | < 125
54 | CC(CCN1CN(C23c4ccccc4CC2Cc2ccccc23)n2ccc(=O)c(O)c2C1=O)c1ccccc1 (stereo not drawn) [Compound A32, 1-(9a,10-dihydroindeno[1,2-a]inden-4b(9H)-yl)-5-hydroxy-3-(3-phenylbutyl)-2,3-dihydro-1H-pyrido[2,1-f][1,2,4]triazine-4,6-dione] | < 125

— patent publication US12037333B2, “Pyridopyrazine and pyridotriazine inhibitors of influenza virus replication” (priority 2018, dated 2024)
